Data on eight molecules can be found in US20230066011A1, “PYRROLOPYRIMIDINE DERIVATIVE, AND PHARMACEUTICAL COMPOSITION FOR PREVENTING OR TREATING PROTEIN KINASE-RELATED DISEASE COMPRISING SAME AS ACTIVE INGREDIENT” (VORONOI CO., LTD., priority 2019, published 2023).

Structures are written as SMILES. pIC50: −log10 of the molar value. A value given as a limit tells only on which side of the number the result lay.

Common to all, as to format: biochemical
For one assay, the target named is T1, human GST-DYRK1A (Homo sapiens, UniProt Q13627).
T1 construct: purified human GST-DYRK1A (full length, Thermo Scientifics) enzyme; purchased Thermo Scientifics
Description: GST-DYRK1A enzyme inhibition, ADP-Glo kinase assay. The settings on record: ATP 10 μM, GST-DYRK1A full length, read-out: DYRK1 IC50. An outline of the steps:
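Full-length human GST-DYRK1A (10 ng) with 10 μM ATP and specific substrate in 40 mM Tris-HCl pH 7.4, 20 mM MgCl2, 0.5 mg/mL BSA, 50 μM DTT, 1 h at 25 °C. ADP formation read by ADP-Glo luminescence relative to solvent control; IC50 from three data sets.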

A further assay has as its target LRRK2 (Homo sapiens, UniProt Q5S007). In words: LRRK2 enzyme inhibition, ADP-Glo kinase assay. Set-up: purchased Invitrogen PR8604B. The following applies: ATP 10 μM. In short, it runs like this: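 Purified human LRRK2 (25 ng) with 10 μM ATP and 0.2 μg substrate in 40 mM Tris-HCl pH 7.4, 20 mM MgCl2, 0.5 mg/mL BSA, 50 μM DTT, 2 h at 25° C. ADP-Glo luminescence; 12-point compound series from 50 μM final; IC50 relative to solvent control.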

In another assay the target is LRRK2 (G2019S) (Homo sapiens, UniProt Q5S007, G2019S). In words: LRRK2 G2019S enzyme inhibition, ADP-Glo kinase assay. Further details: purchased SignalChem L10-12GG. The settings on record: ATP 25 μM. In short, it runs like this: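 Purified human LRRK2 G2019S (16 ng) with 25 μM ATP and 0.2 μg substrate, 2 h at 25° C. in Tris-HCl pH 7.4, MgCl2, BSA, DTT buffer; compounds at 12 final concentrations, 50 μM down to 0.000001024 μM. ADP-Glo luminescence versus solvent control gave IC50.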
Sequence of LRRK2 (G2019S) (Q5S007 970-2527 G2019S limits assumed): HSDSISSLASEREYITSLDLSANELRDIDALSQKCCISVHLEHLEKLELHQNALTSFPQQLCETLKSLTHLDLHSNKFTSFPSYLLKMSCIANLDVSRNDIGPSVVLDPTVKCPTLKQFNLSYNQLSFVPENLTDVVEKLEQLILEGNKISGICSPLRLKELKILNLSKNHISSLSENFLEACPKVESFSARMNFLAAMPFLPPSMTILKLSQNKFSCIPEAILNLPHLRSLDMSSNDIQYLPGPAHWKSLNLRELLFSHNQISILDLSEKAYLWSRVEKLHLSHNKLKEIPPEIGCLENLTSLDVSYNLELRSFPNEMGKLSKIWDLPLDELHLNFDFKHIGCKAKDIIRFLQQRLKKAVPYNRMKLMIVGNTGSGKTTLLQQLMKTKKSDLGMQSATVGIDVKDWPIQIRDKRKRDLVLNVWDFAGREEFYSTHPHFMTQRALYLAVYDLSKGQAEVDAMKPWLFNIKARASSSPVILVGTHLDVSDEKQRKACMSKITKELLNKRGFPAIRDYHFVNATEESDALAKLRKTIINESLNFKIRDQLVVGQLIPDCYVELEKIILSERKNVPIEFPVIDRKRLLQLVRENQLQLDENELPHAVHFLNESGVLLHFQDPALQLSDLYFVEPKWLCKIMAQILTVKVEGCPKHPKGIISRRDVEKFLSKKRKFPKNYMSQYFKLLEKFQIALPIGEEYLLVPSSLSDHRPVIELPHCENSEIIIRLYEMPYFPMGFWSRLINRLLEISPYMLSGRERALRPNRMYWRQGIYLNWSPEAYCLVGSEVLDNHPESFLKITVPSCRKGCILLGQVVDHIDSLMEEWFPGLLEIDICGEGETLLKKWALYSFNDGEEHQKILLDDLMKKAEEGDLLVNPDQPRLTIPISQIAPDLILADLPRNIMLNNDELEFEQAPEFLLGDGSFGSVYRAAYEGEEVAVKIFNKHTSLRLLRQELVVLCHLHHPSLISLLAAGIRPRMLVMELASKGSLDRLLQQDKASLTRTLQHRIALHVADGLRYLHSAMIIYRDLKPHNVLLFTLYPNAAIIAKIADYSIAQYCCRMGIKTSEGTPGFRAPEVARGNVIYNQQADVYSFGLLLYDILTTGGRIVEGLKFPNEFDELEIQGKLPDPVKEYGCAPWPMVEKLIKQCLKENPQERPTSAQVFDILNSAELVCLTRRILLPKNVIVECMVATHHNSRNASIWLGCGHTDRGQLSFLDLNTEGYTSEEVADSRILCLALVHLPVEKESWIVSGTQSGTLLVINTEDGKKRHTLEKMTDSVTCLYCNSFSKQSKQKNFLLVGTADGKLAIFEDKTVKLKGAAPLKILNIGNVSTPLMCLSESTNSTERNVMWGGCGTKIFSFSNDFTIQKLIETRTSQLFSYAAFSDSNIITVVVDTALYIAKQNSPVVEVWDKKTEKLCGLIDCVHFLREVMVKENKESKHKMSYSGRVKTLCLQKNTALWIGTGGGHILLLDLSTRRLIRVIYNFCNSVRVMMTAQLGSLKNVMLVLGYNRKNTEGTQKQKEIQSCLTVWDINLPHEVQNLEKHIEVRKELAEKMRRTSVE

Sequence of LRRK2 (Q5S007 970-2527 limits assumed): as the sequence (Q5S007 970-2527 G2019S limits assumed) above, with S1050G counted along it

Take `O=C(c1ccc(Nc2nc(NC3CC3)c3c(C(F)(F)F)c[nH]c3n2)c2c1OCCO2)N1CCN(C2COC2)CC1` [Example 405, (8-((4-(cyclo-propylamino)-5-(trifluoromethyl)-7H-pyrrolo[2,3-d]pyrimidin-2-yl)amino)-2,3-dihydrobenzo[b] [1,4]dioxin-5-yl) (4-(oxetan-3-yl)piperazin-1-yl)methanone]: the pIC50 at human GST-DYRK1A, against LRRK2 and at LRRK2 (G2019S) was greater than 7.00 in each case.
As to `CCNc1nc(Nc2ccc(S(=O)(=O)N3CCC(N4CCOCC4)CC3)c3c2OCCO3)nc2[nH]cc(C(F)(F)F)c12` [Example 430, N^4-ethyl-N^2-(8-((4-morpholino-piperidin-1-yl)sulfonyl)-2,3-dihydro-benzo[b][1,4]dioxin-5-yl)-5-(trifluoromethyl)-7H-pyrrolo[2,3-d]pyrimidine-2,4-diamine], the pIC50 was 6.00 to 6.52 at human GST-DYRK1A, greater than 7.00 against LRRK2 and greater than 7.00 at LRRK2 (G2019S).
Turning to `O=C(c1ccc(Nc2nc(NC3CCCC3)c3c(C(F)(F)F)c[nH]c3n2)c2c1OCCO2)N1CCN(C2COC2)CC1` [Example 414, (8-((4-(cyclopentyl-amino)-5-(trifluoromethyl)-7H-pyrrolo[2,3-d]pyrimidin-2-yl)amino)-2,3-dihydrobenzo[b] [1,4]dioxin-5-yl) (4-(oxetan-3-yl)piperazin-1-yl)methanone], the pIC50 on human GST-DYRK1A, at LRRK2 and against LRRK2 (G2019S) was greater than 7.00 throughout.
Turning to `CNc1nc(Nc2ccc(C(=O)N3CC[C@H](N4CCOCC4)C3)c3c2OCC3)nc2[nH]cc(C(F)(F)F)c12` [Example 236, (S)-(7-((4-(methylamino)-5-(trifluoromethyl)-7H-pyrrolo[2,3-d]pyrimidin-2-yl)amino)-2,3-dihydrobenzofuran-4-yl)(3-morpholinopyrrolidin-1-yl)methanone], the pIC50 at human GST-DYRK1A, against LRRK2 and against LRRK2 (G2019S) was greater than 7.00 throughout.
Consider `O=C(c1ccc(Nc2nc(NC3CC3)c3c(C(F)(F)F)c[nH]c3n2)c2c1CCO2)N1CCC(N2CCOCC2)CC1` [Example 434, (7-((4-(cyclopropyl-amino)5-(trifluoromethyl)-7H-pyrrolo[2,3-d]pyrimidin-2-yl)amino)-2,3-dihydrobenzo-furan-4-yl)(4-morpho-linopiperidin-1-yl)methanone], for which the pIC50 on human GST-DYRK1A, on LRRK2 and against LRRK2 (G2019S) was greater than 7.00 in each case.
Consider `CNc1nc(Nc2ccc(C(=O)N3CCC(N4CCOCC4)CC3)c3c2OCC3)nc2[nH]cc(C(F)(F)F)c12` [Example 217, (7-((4-(methylamino)-5-(trifluoromethyl)-7H-pyrrolo[2,3-d]pyrimidin-2-yl)amino)-2,3-dihydrobenzofuran-4-yl)(4-morpholinopiperidin-1-yl)methanone], for which the pIC50 on human GST-DYRK1A, against LRRK2 and against LRRK2 (G2019S) was greater than 7.00 each time.
Consider `CCNc1nc(Nc2ccc(C(=O)N3CCC(N4CCOCC4)CC3)c3c2OCC3)nc2[nH]cc(C#N)c12` [Example 347, 4-(ethylamino)-2-((4-(4-morpholino-piperidine-1-carbonyl)-2,3-dihydro-benzofuran-7-yl)amino)-7H-pyrrolo[2,3-d]pyrimidine-5-carbonitrile], for which the pIC50 on human GST-DYRK1A, against LRRK2 and at LRRK2 (G2019S) was greater than 7.00 in each case.
For `CCCNc1nc(Nc2ccc(C(=O)N3CCC(N4CCOCC4)CC3)c3c2OCC3)nc2[nH]cc(C(F)(F)F)c12` [Example 446, (4-morpholino-piperidin-1-yl)(7-((4-(propylamino)-5-(trifluoromethyl)-7H-pyrrolo[2,3-d]pyrimidin-2-yl)amino)-2,3-dihydrobenzo-furan-4-yl)methanone], the pIC50 on human GST-DYRK1A, at LRRK2 and on LRRK2 (G2019S) was greater than 7.00 throughout.
